Results taken from ChEMBL document CHEMBL1201862, “PubChem BioAssay data set” (2004).
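96-well plates; 48 h exposure; 5 concentrations. Endpoints by linear interpolation between flanking doses. Not reached: highest tested concentration assigned. Abbreviation: GI50, concentration required for 50% inhibition of growth.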 The source made the active and inactive calls. Rule as the data show it: active = GI50 up to about 1.1 µM and inactive = higher.

Legend:
Assay in all cases: NCI-60 cell line screen, 48 h
LOX IMVI = system: LOX IMVI
COLO 205 = system: COLO 205
SK-OV-3 = system: SK-OV-3
NCI-H460 = system: NCI-H460
OVCAR-4 = system: OVCAR-4
HCT-15 = system: HCT-15
M19-MEL = system: M19-MEL
U-251 = system: U-251
HCC 2998 = system: HCC 2998
M14 = system: M14
A549 = system: A549
SF-268 = system: SF-268
UO-31 = system: UO-31
ACHN = system: ACHN
HOP-18 = system: HOP-18
DMS-114 = system: DMS-114
HCT-116 = system: HCT-116
MOLT-4 = system: MOLT-4
HOP-62 = system: HOP-62
Malme-3M = system: Malme-3M
HL-60 = system: HL-60
DMS-273 = system: DMS-273
OVCAR-3 = system: OVCAR-3
NCI-H226 = system: NCI-H226
OVCAR-5 = system: OVCAR-5
SN12C = system: SN12C
NCI-H23 = system: NCI-H23
SF-539 = system: SF-539
SNB-75 = system: SNB-75
RXF 393 = system: RXF 393
CCRF-CEM = system: CCRF-CEM
HT-29 = system: HT-29
SNB-19 = system: SNB-19
DLD-1 = system: DLD-1
SK-MEL-2 = system: SK-MEL-2
NCI-H522 = system: NCI-H522
SW-620 = system: SW-620
TK-10 = system: TK-10
RPMI-8226 = system: RPMI-8226
A498 = system: A498
UACC-257 = system: UACC-257
SK-MEL-28 = system: SK-MEL-28
KM12 = system: KM12
786-0 = system: 786-0
KM-20L2 = system: KM-20L2
LXFL 529 = system: LXFL 529
OVCAR-8 = system: OVCAR-8
SK-MEL-5 = system: SK-MEL-5
K562 = system: K562
CAKI-1 = system: CAKI-1
SNB-78 = system: SNB-78
SF-295 = system: SF-295
IGROV-1 = system: IGROV-1
UACC-62 = system: UACC-62

With `CC(C)(C)C(=O)OC12/C(=N/O)CCCCCC1c1ccccc12` (centres undefined) the GI50 (LOX IMVI) was 14.3 µM (inactive), the GI50 (COLO 205) was 17 µM (inactive) and the GI50 (SK-OV-3) was 18.7 µM (inactive). For the same molecule, the GI50 (NCI-H460) was 17.3 µM (inactive), the GI50 (OVCAR-4) was 18.9 µM (inactive) and the GI50 (HCT-15) was 16.2 µM. The GI50 (M19-MEL) was 16.6 µM (inactive), the GI50 (U-251) was 17.7 µM (inactive) and the GI50 (HCC 2998) was > 100 µM (inactive). The GI50 (M14) was 16.9 µM (inactive), the GI50 (A549) was 17.8 µM (inactive) and the GI50 (SF-268) was 16.4 µM (inactive). The GI50 (UO-31) was 17.1 µM (inactive), the GI50 (ACHN) was 17.9 µM (inactive) and the GI50 (HOP-18) was 18.8 µM (inactive). The GI50 (DMS-114) was 19.4 µM (inactive), the GI50 (HCT-116) was 14.4 µM (inactive) and the GI50 (MOLT-4) was 14.5 µM (inactive). For the same molecule, the GI50 (HOP-62) was 21.7 µM (inactive), the GI50 (Malme-3M) was 21 µM (inactive) and the GI50 (HL-60) was 18.2 µM (inactive). The GI50 (DMS-273) was 17.9 µM (inactive), the GI50 (OVCAR-3) was 17.4 µM (inactive) and the GI50 (NCI-H226) was 17.7 µM (inactive). For the same molecule, the GI50 (OVCAR-5) was 15.3 µM (inactive), the GI50 (SN12C) was 19 µM (inactive) and the GI50 (NCI-H23) was 16.6 µM (inactive). For the same molecule, the GI50 (SF-539) was 23.2 µM (inactive), the GI50 (SNB-75) was 14.5 µM (inactive) and the GI50 (RXF 393) was 19.5 µM (inactive). For the same molecule, the GI50 (CCRF-CEM) was 23.4 µM (inactive), the GI50 (HT-29) was 13.3 µM (inactive) and the GI50 (SNB-19) was 17.4 µM (inactive). The GI50 (DLD-1) was 19.5 µM (inactive), the GI50 (SK-MEL-2) was 19.2 µM (inactive) and the GI50 (NCI-H522) was 17.8 µM (inactive). The GI50 (SW-620) was 17.6 µM (inactive), the GI50 (TK-10) was 15.9 µM (inactive) and the GI50 (RPMI-8226) was 11.9 µM (inactive). For the same molecule, the GI50 (A498) was 16.9 µM (inactive), the GI50 (UACC-257) was 15 µM (inactive) and the GI50 (SK-MEL-28) was 18.5 µM (inactive). The GI50 (KM12) was 16.1 µM (inactive), the GI50 (786-0) was 17.2 µM (inactive) and the GI50 (KM-20L2) was 20.2 µM (inactive). For the same molecule, the GI50 (LXFL 529) was 16.3 µM (inactive), the GI50 (OVCAR-8) was 19.3 µM (inactive) and the GI50 (SK-MEL-5) was 17.8 µM (inactive). The GI50 (K562) was 19.5 µM (inactive), the GI50 (CAKI-1) was 11.9 µM (inactive) and the GI50 (SNB-78) was 25.1 µM (inactive). For the same molecule, the GI50 (SF-295) was 15.6 µM (inactive), the GI50 (IGROV-1) was 16.1 µM (inactive) and the GI50 (UACC-62) was 17.4 µM (inactive).
